The target in series [1] is T1, Protein mono-ADP-ribosyltransferase PARP10 (Homo sapiens, UniProt Q53GL7).
T1 sequence (Q53GL7 whole entry): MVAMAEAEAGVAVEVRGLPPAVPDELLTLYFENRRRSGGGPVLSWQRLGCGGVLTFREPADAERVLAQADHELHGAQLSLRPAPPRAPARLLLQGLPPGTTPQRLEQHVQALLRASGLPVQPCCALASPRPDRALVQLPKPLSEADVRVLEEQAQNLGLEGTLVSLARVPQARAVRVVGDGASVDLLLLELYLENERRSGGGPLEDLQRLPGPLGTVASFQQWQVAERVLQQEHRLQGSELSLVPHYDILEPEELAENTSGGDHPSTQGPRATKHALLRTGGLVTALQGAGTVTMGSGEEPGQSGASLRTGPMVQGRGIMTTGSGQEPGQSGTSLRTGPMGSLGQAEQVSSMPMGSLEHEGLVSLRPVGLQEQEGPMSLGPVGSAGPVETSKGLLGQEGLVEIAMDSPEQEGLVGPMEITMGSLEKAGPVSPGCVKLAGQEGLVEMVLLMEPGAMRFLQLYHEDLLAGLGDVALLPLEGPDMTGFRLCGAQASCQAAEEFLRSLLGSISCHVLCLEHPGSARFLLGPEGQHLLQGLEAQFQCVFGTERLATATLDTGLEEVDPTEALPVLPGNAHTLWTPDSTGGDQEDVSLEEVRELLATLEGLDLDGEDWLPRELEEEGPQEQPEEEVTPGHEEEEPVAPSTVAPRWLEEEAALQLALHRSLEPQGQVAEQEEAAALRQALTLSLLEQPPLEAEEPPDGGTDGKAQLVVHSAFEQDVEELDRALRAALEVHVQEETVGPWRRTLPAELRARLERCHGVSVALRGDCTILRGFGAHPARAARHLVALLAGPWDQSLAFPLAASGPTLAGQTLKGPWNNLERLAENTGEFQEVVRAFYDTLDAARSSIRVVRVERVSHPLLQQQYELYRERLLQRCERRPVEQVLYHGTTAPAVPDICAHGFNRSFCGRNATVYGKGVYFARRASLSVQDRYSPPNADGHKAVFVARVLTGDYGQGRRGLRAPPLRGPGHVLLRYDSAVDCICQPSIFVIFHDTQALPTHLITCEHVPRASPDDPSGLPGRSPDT
The experiment in a line: Inhibition of human recombinant N-terminal FLAG-tagged / C-terminal Strep-tagged PARP10 (805 to 1025 end residues) expressed in baculovirus infected Sf9 cells expression system incubated for 1 hr by ELISA assay.

Series [2] addresses T2, Protein mono-ADP-ribosyltransferase TIPARP (Mus musculus) (UniProt Q8C1B2).
T2 sequence (whole entry): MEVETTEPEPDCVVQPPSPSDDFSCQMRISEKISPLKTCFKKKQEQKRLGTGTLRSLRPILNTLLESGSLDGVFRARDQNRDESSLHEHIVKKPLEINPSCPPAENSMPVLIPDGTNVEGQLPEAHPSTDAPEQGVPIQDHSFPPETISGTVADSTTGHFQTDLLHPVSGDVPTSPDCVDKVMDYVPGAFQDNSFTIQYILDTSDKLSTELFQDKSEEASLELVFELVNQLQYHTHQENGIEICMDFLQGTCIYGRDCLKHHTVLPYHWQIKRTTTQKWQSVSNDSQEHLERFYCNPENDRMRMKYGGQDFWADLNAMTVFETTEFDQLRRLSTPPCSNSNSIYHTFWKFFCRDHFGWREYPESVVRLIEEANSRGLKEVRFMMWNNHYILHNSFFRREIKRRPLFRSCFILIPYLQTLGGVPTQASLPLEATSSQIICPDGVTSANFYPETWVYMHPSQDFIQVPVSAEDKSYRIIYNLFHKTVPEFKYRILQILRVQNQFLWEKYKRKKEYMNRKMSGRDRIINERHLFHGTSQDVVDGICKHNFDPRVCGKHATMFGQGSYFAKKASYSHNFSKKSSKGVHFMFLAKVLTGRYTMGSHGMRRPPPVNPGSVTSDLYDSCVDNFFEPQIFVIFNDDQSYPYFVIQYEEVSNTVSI
In words: Inhibition of PARP7 in mouse CT26 cells assessed as increase in STAT1 phosphorylation incubated for 6 hrs in presence of DMXAA by Western blotting analysis. Type of series: cell-based. To be noted: dose 0.44-4 µM. For orientation: In western blotting, separated proteins are transferred to a membrane and probed.

In series [3] the target is Poly [ADP-ribose] polymerase 1 (Homo sapiens, UniProt P09874). In words: Inhibition of human recombinant N-terminal GST-tagged PARP1 (2 to 1014 end residues) incubated for 1 hr by ELISA assay. A general note: In an ELISA, binding on a coated surface is turned into a signal by an enzyme label.
Sequence of Poly [ADP-ribose] polymerase 1 (P09874 whole entry): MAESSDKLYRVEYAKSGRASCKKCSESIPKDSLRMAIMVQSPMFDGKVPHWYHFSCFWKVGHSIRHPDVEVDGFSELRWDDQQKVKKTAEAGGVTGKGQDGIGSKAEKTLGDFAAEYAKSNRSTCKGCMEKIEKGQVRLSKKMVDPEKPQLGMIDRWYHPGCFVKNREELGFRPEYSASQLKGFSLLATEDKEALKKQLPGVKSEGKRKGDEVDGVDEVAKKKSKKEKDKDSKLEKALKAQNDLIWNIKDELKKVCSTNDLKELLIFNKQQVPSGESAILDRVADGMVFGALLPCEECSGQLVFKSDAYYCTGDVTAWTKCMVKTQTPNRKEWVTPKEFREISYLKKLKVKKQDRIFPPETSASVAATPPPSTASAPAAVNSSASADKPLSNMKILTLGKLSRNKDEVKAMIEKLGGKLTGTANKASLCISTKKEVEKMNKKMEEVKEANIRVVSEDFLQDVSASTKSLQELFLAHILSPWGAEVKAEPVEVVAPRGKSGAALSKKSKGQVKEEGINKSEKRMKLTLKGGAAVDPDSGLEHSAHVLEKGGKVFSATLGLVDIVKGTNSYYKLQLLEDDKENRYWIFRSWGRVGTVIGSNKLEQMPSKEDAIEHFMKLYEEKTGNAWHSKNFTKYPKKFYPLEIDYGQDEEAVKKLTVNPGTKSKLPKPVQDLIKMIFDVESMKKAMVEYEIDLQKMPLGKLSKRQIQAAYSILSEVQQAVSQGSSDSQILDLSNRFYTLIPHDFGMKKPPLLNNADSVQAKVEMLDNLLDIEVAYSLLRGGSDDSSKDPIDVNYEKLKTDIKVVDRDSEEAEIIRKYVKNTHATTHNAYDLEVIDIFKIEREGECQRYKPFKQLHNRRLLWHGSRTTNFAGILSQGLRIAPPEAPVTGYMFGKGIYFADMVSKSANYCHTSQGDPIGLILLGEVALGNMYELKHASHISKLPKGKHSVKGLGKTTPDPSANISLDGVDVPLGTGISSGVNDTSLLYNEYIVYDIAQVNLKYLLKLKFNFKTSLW
The nature of series [4]: Half life in ICR mouse at 10 mg/kg, po measured upto 24 hrs by LC-MS/MS analysis. The settings on record: in vivo. Type of series: ADME, organism-based.
Series [5] concerns the target Protein mono-ADP-ribosyltransferase PARP14 (Homo sapiens, UniProt Q460N5). In words: Inhibition of human recombinant N-terminal 6his-tagged / GST-tagged PARP14 (1470 to 1801 end residues) expressed in baculovirus infected Sf9 cells expression system incubated for 1 hr by ELISA assay.
Series [6] can be described thus: AUC(0 to infinity) in ICR mouse at 1 mg/kg, iv measured upto 24 hrs by LC-MS/MS analysis. To be noted: in vivo. Set-up: time < 24 hrs, dose 1 mg/kg, route iv. Type of series: ADME, organism-based.

Structures are written as SMILES.

The source of these data is ChEMBL document CHEMBL5316291 (J Med Chem, 2023).

As a reminder, the IC50 is the concentration at which inhibition is half-maximal. For orientation: AUC means concentration integrated over time. Lower therefore signals low exposure.

Sequence of Protein mono-ADP-ribosyltransferase PARP14 (Q460N5 whole entry): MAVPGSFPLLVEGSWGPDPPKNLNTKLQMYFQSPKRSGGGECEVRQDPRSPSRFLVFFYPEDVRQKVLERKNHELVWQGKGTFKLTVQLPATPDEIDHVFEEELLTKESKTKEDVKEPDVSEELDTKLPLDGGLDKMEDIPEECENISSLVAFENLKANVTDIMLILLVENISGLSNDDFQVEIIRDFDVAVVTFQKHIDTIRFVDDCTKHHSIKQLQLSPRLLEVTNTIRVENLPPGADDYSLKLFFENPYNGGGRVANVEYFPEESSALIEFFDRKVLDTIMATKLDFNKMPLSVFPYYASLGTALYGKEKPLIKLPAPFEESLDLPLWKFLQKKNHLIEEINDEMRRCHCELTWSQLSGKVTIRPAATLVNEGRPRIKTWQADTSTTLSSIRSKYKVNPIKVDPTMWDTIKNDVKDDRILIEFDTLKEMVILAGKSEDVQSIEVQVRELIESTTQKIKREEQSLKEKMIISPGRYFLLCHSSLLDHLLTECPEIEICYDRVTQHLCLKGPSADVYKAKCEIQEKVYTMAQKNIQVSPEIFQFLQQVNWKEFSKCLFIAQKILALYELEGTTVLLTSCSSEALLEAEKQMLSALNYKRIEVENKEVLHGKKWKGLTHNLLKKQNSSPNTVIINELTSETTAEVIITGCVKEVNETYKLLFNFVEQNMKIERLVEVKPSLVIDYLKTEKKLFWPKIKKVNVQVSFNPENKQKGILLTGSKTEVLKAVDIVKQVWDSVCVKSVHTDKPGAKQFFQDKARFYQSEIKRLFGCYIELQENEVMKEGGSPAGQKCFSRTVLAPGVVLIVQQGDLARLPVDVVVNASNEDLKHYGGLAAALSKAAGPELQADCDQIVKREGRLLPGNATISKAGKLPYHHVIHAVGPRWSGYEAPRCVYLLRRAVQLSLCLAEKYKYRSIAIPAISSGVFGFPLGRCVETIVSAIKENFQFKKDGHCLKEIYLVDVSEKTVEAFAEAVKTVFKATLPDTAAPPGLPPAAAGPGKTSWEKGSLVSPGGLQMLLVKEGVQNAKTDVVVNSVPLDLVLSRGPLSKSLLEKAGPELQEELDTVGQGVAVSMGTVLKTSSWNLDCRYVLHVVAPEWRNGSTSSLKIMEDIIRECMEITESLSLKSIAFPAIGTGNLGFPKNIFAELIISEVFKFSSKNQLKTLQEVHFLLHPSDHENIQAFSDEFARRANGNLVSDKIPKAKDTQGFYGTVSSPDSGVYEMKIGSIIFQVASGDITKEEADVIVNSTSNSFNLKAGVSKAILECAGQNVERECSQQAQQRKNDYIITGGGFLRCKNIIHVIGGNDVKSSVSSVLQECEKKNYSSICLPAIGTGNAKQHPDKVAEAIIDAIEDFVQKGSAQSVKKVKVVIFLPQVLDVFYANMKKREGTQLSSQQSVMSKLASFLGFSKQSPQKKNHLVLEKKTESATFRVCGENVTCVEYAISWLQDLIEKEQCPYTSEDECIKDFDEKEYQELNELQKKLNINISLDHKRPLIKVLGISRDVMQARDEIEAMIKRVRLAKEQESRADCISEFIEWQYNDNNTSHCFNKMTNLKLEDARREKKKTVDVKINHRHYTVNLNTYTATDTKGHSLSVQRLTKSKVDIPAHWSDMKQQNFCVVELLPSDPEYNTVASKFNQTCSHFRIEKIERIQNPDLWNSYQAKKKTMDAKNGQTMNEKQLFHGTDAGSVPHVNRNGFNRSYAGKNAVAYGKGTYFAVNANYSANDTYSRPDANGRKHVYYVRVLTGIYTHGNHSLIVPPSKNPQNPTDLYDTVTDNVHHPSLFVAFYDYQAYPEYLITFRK

`C[C@@H](CN1CC(C(=O)N2CCN(c3ncc(C(F)(F)F)cn3)CC2)C1)Nc1cn[nH]c(=O)c1C(F)(F)F`: the IC50 in series [1] was 325 nM; in series [3], over 5000 nM; in series [5], 2170 nM. In addition, the inhibition result in series [2] was “Dose-Dependent Effect”. For the same compound, the t1/2 in series [4] is 1.74 h. Besides, in series [6], the AUC was 591.1 ng·h/mL.
